Like-named read-outs stand apart in the source and are kept apart here.
Columns and labels:
[1] = tested on: HCV NS5A genotype 1-7 recombinants; assay: BMS-790052 treatment of infected cultures, high-throughput assay; type: cell-based; settings: Hepatitis C virus, most isolates
Protocol: (§1) 5×10^3 naïve Huh7.5 cells were plated per well in a poly-D-lysine coated 96-well plate (Nunc, Roskilde, D K) one day before infection with different recombinant viruses. Infectious doses were chosen to aim at 400-1000 single infected cells in non-treated wells at the end of the experiment. J6/JFH1 was included with two infectious doses (high and low) to control for impact of dose variability. The infectious dose of other recombinants was in the range between. […] On day three cells were fixed and immunostained for NS3 expression as described above. In parallel, cell viability was monitored with CellTiter™ 96 AQueous One Solution Cell Proliferation Assay (Promega, Madison, Wis. USA). The number of single infected cells was determined by automated counting of individual wells as described above.
(§2) To improve HCV treatment, much attention has been drawn to development of specific small molecule HCV inhibitors, including inhibitors of NS5A. Using the NS5A genotype recombinants, we investigated sensitivity to the NS5A inhibitor most advanced in clinical trials, BMS-790052. Treatment experiments using the specific NS5A inhibitor BMS-790052 (synthesized by Acme Bioscience, Palo Alto, Calif., USA) were conducted similar to what was described for interferon-alpha.

[2] = tested on: DH6(1a) NS5A recombinant; assay: BMS-790052 treatment of infected cultures; type: cell-based; settings: Hepatitis C virus; genotype 1a, isolate DH6 NS5A recombinant; read-out: NS5A inhibitor, EC50 (nM), original
Protocol: as §1, §2

[3] = tested on: ED43(4a) NS5A recombinant; assay: BMS-790052 treatment of infected cultures; type: cell-based; settings: Hepatitis C virus, read-out: NS5A inhibitor, EC50 (nM), original
Protocol: as §1, §2

[4] = tested on: H77C(1a) NS5A recombinant; assay: BMS-790052 treatment of infected cultures; type: cell-based; settings: Hepatitis C virus; genotype 1a, isolate H77C NS5A recombinant; read-out: NS5A inhibitor, EC50 (nM), original
Protocol: as §1, §2

[5] = tested on: HCV-1(1a) NS5A recombinant; assay: BMS-790052 treatment of infected cultures; type: cell-based; settings: Hepatitis C virus; genotype 1a, isolate HCV-1 NS5A recombinant; read-out: NS5A inhibitor, EC50 (nM), original
Protocol: as §1, §2

[6] = tested on: HK6a(6a) NS5A recombinant; assay: BMS-790052 treatment of infected cultures; type: cell-based; settings: Hepatitis C virus; genotype 6a, isolate HK6a NS5A recombinant; read-out: NS5A inhibitor, EC50 (nM), original
Protocol: as §1, §2

[7] = tested on: J1(1a) NS5A recombinant; assay: BMS-790052 treatment of infected cultures; type: cell-based; settings: Hepatitis C virus
Protocol: as §1, §2

[8] = tested on: J4(1b) NS5A recombinant; assay: BMS-790052 treatment of infected cultures; type: cell-based; settings: Hepatitis C virus
Protocol: as §1, §2

[9] = tested on: J6(2a) NS5A recombinant; assay: BMS-790052 treatment of infected cultures; type: cell-based; settings: Hepatitis C virus
Protocol: as §1, §2

[10] = tested on: JFH1(2a) NS5A (J6/JFH1); assay: BMS-790052 treatment of infected cultures; type: cell-based; settings: Hepatitis C virus; genotype 2a, isolate JFH1 NS5A (J6/JFH1); read-out: NS5A inhibitor, EC50 (nM), original
Protocol: as §1, §2

[11] = tested on: QC69(7a) NS5A recombinant; assay: BMS-790052 treatment of infected cultures; type: cell-based; settings: Hepatitis C virus; genotype 7a, isolate QC69 NS5A recombinant; read-out: NS5A inhibitor, EC50 (nM), original
Protocol: as §1, §2

[12] = tested on: S52(3a) NS5A recombinant; assay: BMS-790052 treatment of infected cultures; type: cell-based; settings: Hepatitis C virus
Protocol: as §1, §2

[13] = tested on: SA13(5a) NS5A recombinant; assay: BMS-790052 treatment of infected cultures; type: cell-based; settings: Hepatitis C virus; genotype 5a, isolate SA13 NS5A recombinant; read-out: NS5A inhibitor, EC50 (nM), original
Protocol: as §1, §2

[14] = tested on: TN(1a) NS5A recombinant; assay: BMS-790052 treatment of infected cultures; type: cell-based; settings: Hepatitis C virus; genotype 1a, isolate TN NS5A recombinant; read-out: NS5A inhibitor, EC50 (nM), original
Protocol: as §1, §2

[15] = tested on: J6/JFH1 with NS5A mutation L27I; assay: BMS-790052 treatment of infected cultures; type: cell-based, hepatitis C virus
[16] = tested on: J6/JFH1 with NS5A mutation K30A; assay: BMS-790052 treatment of infected cultures; type: cell-based, hepatitis C virus
[17] = tested on: J6/JFH1 with NS5A mutation I37V; assay: BMS-790052 treatment of infected cultures; type: cell-based, hepatitis C virus
[18] = tested on: genotype 1 replicons; settings: cited from earlier work

## COC(=O)N[C@H](C(=O)N1CCC[C@H]1c1nc(-c2ccc(-c3ccc(-c4c[nH]c([C@@H]5CCCN5C(=O)[C@@H](NC(=O)OC)C(C)C)n4)cc3)cc2)c[nH]1)C(C)C [BMS-790052]
[1]
  EC50: < 0.1 nM
[2]
  EC50: 0.065 nM
[3]
  EC50: 0.017 nM
[4]
  EC50: 0.026 nM
[5]
  EC50: 0.12 nM
[6]
  EC50: 0.031 nM
[7]; J1(1a), read-out: EC50
  EC50: 1.1 nM
[7]; genotype 1a, isolate J1 NS5A recombinant, read-out: NS5A inhibitor, EC50 (nM), original
  EC50: 1.1 nM
[8]; J4(1b), most sensitive, read-out: EC50
  EC50: 0.009 nM
[8]; genotype 1b, isolate J4 NS5A recombinant, read-out: NS5A inhibitor, EC50 (nM), original
  EC50: 0.009 nM
[9]; J6(2a), read-out: EC50
  EC50: 14 nM
[9]; genotype 2a, isolate J6 NS5A recombinant, read-out: NS5A inhibitor, EC50 (nM), original
  EC50: 14 nM
[10]
  EC50: 0.097 nM
[11]
  EC50: 0.05 nM
[12]; S52(3a), read-out: EC50
  EC50: 0.9 nM
[12]; genotype 3a, isolate S52 NS5A recombinant, read-out: NS5A inhibitor, EC50 (nM), original
  EC50: 0.9 nM
[13]
  EC50: 0.034 nM
[14]
  EC50: 0.038 nM
[15]; Hepatitis C virus, JFH1(2a), NS5A mutation L27I, single experiment of three replicates, read-out: NS5A inhibitor, EC50 (nM), putative resistance mutant
  EC50: 0.14 nM
[15]; JFH1(2a) L27I vs original JFH1(2a)
  Fold resistance compared to original: 1.6 fold
[16]; Hepatitis C virus, JFH1(2a), NS5A mutation K30A, single experiment of three replicates, read-out: NS5A inhibitor, EC50 (nM), putative resistance mutant
  EC50: 0.034 nM
[16]; JFH1(2a) K30A vs original JFH1(2a)
  Fold resistance compared to original: 0.38 fold
[17]; Hepatitis C virus, JFH1(2a), NS5A mutation I37V, single experiment of three replicates, read-out: NS5A inhibitor, EC50 (nM), putative resistance mutant
  EC50: 0.17 nM
[17]; JFH1(2a) I37V vs original JFH1(2a)
  Fold resistance compared to original: 2.0 fold
[18]
  fold resistance induced by change of NS5A residue 93: > 10 fold

From patent US9388389B2, “JFH-1 based HCV cell culture systems for NS5A of genotypes 1-7” (Hvidovre Hospital, priority 2009, dated 2016)
